Results: ChEMBL document CHEMBL5291721, “A preclinical secondary pharmacology resource illuminates target-adverse drug reaction associations of marketed drugs” (Nat Commun, 2023)

Legend:
[1] = biological target: T1, Muscarinic acetylcholine receptor M1 (Homo sapiens, UniProt P11229); type: functional
T1 sequence (P11229 whole entry): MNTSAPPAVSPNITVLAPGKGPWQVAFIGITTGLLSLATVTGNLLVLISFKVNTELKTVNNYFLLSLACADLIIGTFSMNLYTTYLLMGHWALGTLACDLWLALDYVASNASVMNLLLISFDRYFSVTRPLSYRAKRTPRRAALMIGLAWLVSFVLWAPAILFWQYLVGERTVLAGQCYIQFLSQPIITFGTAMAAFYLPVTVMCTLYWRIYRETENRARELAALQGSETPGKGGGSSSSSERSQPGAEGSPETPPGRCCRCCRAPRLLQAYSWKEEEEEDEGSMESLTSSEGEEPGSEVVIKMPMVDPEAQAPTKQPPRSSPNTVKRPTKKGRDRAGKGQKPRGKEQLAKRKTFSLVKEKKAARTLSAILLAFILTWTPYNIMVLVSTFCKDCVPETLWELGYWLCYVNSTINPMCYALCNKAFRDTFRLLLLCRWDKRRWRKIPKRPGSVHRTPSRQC

[2] = biological target: Muscarinic acetylcholine receptor M3 (Homo sapiens, UniProt P20309)
Muscarinic acetylcholine receptor M3, sequence (P20309 whole entry): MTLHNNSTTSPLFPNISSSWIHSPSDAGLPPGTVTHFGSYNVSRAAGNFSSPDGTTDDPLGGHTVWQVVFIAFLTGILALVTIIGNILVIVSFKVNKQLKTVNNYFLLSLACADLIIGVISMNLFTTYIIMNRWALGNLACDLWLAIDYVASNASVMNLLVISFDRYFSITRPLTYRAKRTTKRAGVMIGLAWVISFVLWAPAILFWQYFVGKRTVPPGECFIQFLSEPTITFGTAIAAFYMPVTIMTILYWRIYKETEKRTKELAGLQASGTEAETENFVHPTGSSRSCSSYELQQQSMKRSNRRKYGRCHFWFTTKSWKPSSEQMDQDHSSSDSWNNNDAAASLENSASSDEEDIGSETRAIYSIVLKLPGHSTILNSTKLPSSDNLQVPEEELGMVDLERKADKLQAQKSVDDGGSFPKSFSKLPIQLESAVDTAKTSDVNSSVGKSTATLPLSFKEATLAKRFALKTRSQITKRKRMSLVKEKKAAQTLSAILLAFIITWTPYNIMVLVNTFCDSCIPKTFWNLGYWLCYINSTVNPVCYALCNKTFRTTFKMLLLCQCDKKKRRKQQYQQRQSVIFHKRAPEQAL

Histamine H1 receptor = Histamine H1 receptor (Homo sapiens, UniProt P35367)
Histamine H1 receptor, sequence (P35367 whole entry): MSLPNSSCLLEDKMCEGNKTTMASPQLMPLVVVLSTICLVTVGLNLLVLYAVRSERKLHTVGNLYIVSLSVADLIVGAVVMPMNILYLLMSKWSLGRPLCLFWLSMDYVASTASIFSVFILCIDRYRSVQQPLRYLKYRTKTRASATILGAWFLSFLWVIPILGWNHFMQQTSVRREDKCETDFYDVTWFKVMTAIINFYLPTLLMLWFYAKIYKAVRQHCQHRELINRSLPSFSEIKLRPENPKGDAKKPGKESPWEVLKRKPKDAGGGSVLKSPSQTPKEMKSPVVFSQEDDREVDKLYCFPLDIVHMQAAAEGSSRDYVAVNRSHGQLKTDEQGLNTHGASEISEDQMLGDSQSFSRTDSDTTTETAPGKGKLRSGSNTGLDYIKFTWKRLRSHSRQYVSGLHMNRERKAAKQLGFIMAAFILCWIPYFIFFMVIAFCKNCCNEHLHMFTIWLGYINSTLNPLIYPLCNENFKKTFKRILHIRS

[3] = biological target: 5-hydroxytryptamine receptor 2A (Homo sapiens, UniProt P28223); type: functional, cell-based
5-hydroxytryptamine receptor 2A, sequence (P28223 whole entry): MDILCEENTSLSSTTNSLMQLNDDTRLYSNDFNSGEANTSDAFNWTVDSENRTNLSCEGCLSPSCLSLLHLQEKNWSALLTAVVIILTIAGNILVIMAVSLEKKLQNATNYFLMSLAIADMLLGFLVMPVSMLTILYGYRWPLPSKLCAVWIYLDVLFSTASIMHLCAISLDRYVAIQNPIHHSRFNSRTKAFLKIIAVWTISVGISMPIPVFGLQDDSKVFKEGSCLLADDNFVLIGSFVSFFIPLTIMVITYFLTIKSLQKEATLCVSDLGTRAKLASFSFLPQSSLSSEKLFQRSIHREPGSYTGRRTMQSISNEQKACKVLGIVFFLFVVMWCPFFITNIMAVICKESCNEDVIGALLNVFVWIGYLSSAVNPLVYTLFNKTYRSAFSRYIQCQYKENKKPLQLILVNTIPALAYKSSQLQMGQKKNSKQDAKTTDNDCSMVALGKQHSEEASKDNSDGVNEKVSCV

Endothelin-1 receptor = biological target: T2, Endothelin-1 receptor (Homo sapiens, UniProt P25101)
T2 sequence (P25101 whole entry): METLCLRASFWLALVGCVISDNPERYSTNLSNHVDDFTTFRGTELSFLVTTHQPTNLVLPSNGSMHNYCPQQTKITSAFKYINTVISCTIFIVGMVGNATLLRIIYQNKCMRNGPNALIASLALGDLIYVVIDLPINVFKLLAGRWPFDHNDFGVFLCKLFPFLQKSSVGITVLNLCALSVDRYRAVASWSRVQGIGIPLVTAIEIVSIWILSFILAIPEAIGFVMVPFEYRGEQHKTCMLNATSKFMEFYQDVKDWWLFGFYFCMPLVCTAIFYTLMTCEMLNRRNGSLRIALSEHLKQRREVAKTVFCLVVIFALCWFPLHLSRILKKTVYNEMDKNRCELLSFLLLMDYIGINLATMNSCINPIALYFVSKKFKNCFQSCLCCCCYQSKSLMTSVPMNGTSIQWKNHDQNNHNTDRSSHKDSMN

Adenosine receptor A1 = biological target: T3, Adenosine receptor A1 (Homo sapiens, UniProt P30542)
T3 sequence (P30542 whole entry): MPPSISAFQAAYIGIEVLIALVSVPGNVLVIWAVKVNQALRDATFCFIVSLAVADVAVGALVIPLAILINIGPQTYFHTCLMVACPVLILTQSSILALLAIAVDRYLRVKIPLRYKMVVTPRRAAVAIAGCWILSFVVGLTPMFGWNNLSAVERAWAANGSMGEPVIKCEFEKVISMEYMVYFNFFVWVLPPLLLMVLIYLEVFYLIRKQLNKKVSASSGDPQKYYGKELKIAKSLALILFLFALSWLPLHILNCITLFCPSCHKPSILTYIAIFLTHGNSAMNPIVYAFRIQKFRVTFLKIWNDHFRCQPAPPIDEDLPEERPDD

[4] = biological target: Gamma-aminobutyric acid receptor subunit alpha-1/alpha-2/beta-2/gamma-2 (Homo sapiens, UniProt P14867+P18507+P47869+P47870); type: protein-complex assay
Gamma-aminobutyric acid receptor subunit alpha-1/alpha-2/beta-2/gamma-2, sequence (P14867 whole entry): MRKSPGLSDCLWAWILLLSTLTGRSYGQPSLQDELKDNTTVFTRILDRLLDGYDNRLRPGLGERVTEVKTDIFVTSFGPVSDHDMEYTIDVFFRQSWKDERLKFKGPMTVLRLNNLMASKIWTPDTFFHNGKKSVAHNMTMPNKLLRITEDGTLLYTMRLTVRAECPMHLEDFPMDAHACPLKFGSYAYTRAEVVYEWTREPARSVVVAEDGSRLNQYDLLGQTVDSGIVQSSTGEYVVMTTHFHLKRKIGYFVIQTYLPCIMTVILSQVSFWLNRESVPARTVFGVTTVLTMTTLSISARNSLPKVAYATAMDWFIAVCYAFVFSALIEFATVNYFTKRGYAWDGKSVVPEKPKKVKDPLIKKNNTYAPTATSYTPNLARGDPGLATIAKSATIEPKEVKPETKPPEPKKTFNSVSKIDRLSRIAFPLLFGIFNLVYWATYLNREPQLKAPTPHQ
Gamma-aminobutyric acid receptor subunit alpha-1/alpha-2/beta-2/gamma-2, sequence (P47870 whole entry): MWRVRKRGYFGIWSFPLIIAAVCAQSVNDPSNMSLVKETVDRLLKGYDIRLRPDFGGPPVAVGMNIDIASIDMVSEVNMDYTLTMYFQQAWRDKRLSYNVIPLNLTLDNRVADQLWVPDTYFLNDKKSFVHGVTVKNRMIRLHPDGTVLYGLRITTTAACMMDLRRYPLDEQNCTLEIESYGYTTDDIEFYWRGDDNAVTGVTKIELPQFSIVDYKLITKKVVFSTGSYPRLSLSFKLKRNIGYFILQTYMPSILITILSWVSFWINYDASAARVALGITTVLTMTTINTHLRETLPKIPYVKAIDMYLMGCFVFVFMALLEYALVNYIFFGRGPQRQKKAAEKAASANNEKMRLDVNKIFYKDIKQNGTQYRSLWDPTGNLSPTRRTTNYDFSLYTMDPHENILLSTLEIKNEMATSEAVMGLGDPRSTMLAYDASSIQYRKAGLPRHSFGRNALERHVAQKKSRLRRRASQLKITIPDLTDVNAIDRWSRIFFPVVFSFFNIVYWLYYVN
Gamma-aminobutyric acid receptor subunit alpha-1/alpha-2/beta-2/gamma-2, sequence (P18507 whole entry): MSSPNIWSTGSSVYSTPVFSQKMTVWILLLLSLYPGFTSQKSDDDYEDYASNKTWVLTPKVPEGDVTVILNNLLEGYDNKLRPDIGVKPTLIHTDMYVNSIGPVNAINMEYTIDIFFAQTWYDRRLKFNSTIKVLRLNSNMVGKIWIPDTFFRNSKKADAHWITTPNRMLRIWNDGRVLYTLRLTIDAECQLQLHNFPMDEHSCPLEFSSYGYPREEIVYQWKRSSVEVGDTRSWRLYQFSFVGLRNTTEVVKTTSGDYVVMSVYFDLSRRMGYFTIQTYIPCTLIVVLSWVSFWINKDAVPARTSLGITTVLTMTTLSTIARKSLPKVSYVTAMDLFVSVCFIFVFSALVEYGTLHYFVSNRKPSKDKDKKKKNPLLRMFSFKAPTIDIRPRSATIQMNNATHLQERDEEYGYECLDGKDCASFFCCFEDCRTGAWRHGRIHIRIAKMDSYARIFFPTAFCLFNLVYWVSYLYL
Gamma-aminobutyric acid receptor subunit alpha-1/alpha-2/beta-2/gamma-2, sequence (P47869 whole entry): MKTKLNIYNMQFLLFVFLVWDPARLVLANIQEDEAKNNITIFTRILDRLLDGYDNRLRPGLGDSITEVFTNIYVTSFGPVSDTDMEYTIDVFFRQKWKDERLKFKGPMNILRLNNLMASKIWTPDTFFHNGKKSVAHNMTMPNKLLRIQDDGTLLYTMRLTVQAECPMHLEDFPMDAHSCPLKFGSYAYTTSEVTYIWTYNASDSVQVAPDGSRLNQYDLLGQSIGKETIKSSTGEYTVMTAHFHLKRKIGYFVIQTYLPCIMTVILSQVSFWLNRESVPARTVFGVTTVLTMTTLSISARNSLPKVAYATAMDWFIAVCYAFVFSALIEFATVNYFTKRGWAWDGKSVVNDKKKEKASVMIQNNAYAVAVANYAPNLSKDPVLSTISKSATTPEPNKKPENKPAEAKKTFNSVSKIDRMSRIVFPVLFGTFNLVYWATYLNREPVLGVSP

[5] = biological target: T4, Neuropeptide Y receptor type 2 (Homo sapiens, UniProt P49146)
T4 sequence (P49146 whole entry): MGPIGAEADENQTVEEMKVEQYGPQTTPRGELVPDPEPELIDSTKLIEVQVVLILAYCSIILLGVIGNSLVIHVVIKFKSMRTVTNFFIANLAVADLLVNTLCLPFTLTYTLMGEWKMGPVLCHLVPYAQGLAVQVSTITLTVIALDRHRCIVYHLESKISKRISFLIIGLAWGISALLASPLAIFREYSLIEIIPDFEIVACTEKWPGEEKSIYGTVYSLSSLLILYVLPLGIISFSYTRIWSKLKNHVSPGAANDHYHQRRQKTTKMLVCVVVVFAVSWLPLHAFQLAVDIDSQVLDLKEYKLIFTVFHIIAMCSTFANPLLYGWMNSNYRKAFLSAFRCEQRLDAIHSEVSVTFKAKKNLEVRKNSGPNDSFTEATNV

[6] = biological target: T5, 5-hydroxytryptamine receptor 1A (Homo sapiens, UniProt P08908)
T5 sequence (P08908 whole entry): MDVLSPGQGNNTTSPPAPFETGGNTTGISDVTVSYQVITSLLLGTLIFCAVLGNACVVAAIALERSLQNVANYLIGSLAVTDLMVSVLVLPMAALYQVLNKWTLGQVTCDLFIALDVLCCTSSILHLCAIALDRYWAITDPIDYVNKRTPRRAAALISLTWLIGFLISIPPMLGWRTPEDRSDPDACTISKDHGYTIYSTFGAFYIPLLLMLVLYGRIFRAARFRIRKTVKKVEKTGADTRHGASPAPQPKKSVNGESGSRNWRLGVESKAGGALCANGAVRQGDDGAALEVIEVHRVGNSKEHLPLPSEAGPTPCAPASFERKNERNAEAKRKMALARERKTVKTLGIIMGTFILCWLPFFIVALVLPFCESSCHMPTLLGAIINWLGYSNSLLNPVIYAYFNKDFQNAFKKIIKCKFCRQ
Further: assay procedure not described here.

Row | SMILES | AC50 [1] [µM] | AC50 [2] [µM] | AC50 (Histamine H1 receptor) [µM] | AC50 (Endothelin-1 receptor) [µM] | AC50 [4] [µM] | further results
1 | C[N+]1(C)CCC(=C(c2ccccc2)c2ccccc2)CC1 | 0.41 | 0.19 | 2.9 | – | – | AC50 [3]: 19 µM
2 | C[N+](C)(C)CCOP(=O)([O-])OC[C@H](O)CO | – | – | – | > 30 | – | –
3 | CN(C)Cc1nnc2n1-c1ccc(Cl)cc1C(c1ccccc1)=NC2 [ADINAZOLAM] | > 10 | – | > 10 | – | – | –
4 | Cc1ccccc1-n1c(CF)nc2ccc(N)cc2c1=O [AFLOQUALONE] | > 10 | > 30 | > 10 | – | – | AC50 [3]: > 10 µM
5 | CC1(C)S[C@@H]2[C@H](/N=C/N3CCCCCC3)C(=O)N2[C@H]1C(=O)O [AMDINOCILLIN] | – | – | – | – | – | AC50 (Adenosine receptor A1): > 30 µM
6 | CCC1(c2ccc(N)cc2)CCC(=O)NC1=O (stereo not given) [AMINOGLUTETHIMIDE] | – | – | – | > 30 | – | –
7 | NC(=O)[C@@H]1CC[C@@H]2CN1C(=O)N2OS(=O)(=O)O [AVIBACTAM] | – | – | – | – | > 30 | –
8 | CC(Cc1cccc(C(F)(F)F)c1)NCCOC(=O)c1ccccc1 (stereo not given) [BENFLUOREX] | > 30 | 27 | 13.5 | > 30 | – | AC50 [3]: 6.86 µM
9 | CC(C)(C)NC(=O)N[C@H](C(=O)N1C[C@H]2[C@@H]([C@H]1C(=O)NC(CC1CCC1)C(=O)C(N)=O)C2(C)C)C(C)(C)C (stereo not given in full) [BOCEPREVIR] | – | – | – | – | – | AC50 (Adenosine receptor A1): > 30 µM
10 | NC[C@H]1CC[C@H](C(=O)Oc2ccc(CCC(=O)O)cc2)CC1 [CETRAXATE] | – | – | – | – | – | AC50 (Adenosine receptor A1): > 30 µM
11 | C=C1CC[C@H](O)C/C1=C/C=C1\CCC[C@]2(C)[C@@H]([C@H](C)CCCC(C)C)CC[C@@H]12 [CHOLECALCIFEROL] | – | – | – | – | > 30 | –
12 | Cc1ncc2c(c1O)COC2c1ccc(Cl)cc1 (stereo not given) [CICLETANINE] | – | – | – | – | > 30 | –
13 | N#Cc1ccc(Oc2ccc3c(c2)COB3O)cc1 [CRISABOROLE] | – | – | – | – | > 30 | –
14 | C/C=C(/C(=C/C)c1ccc(O)cc1)c1ccc(O)cc1 [DIENESTROL] | – | > 30 | > 10 | – | – | AC50 [3]: > 10 µM
15 | CN[C@]1(c2ccccc2Cl)CCCCC1=O [ESKETAMINE] | – | – | – | > 30 | – | –
16 | CC(=O)O[C@H]1Cc2ccccc2N(C(N)=O)c2ccccc21 [ESLICARBAZEPINE ACETATE] | – | – | – | – | > 30 | –
17 | COc1ccc([C@@H]2CC(=O)c3c(O)cc(O)cc3O2)cc1O [HESPERETIN] | > 10 | > 30 | > 10 | – | – | AC50 [3]: > 10 µM
18 | CNCCc1ccc(OC(=O)C(C)C)c(OC(=O)C(C)C)c1 [IBOPAMINE] | > 30 | > 30 | > 30 | > 30 | – | AC50 [3]: > 30 µM
19 | CN(C)CCCN1c2ccccc2CCc2ccccc21 [IMIPRAMINE] | – | – | – | > 30 | – | AC50 [5]: > 30 µM; AC50 [6]: > 10 µM
20 | O=C(CCC/C=C\C[C@@H]1[C@@H](CC[C@@H](O)CCc2ccccc2)[C@H](O)C[C@@H]1O)OCCCCO[N+](=O)[O-] [LATANOPROSTENE BUNOD] | – | – | – | – | – | AC50 (Adenosine receptor A1): > 30 µM
21 | COC(=O)C1=C(C)NC(C)=C(C(=O)OCCN2CCN(C(c3ccccc3)c3ccccc3)CC2)C1c1cccc([N+](=O)[O-])c1 (stereo not given) [MANIDIPINE 6300] | > 30 | > 30 | 3.7 | > 30 | – | AC50 [3]: > 30 µM
22 | C=C1c2cccc(O)c2C(=O)C2=C(O)[C@]3(O)C(=O)C(C(N)=O)=C(O)[C@@H](N(C)C)[C@@H]3[C@@H](O)[C@H]12 [METHACYCLINE] | > 10 | > 30 | > 10 | – | – | AC50 [3]: > 10 µM

Row | SMILES | AC50 [1] [µM] | AC50 [2] [µM] | AC50 (Histamine H1 receptor) [µM] | AC50 (Endothelin-1 receptor) [µM] | AC50 [4] [µM] | further results
23 | CN(Cc1cnc2nc(N)nc(N)c2n1)c1ccc(C(=O)N[C@@H](CCC(=O)O)C(=O)O)cc1 [METHOTREXATE] | – | – | – | > 30 | – | AC50 [5]: > 30 µM; AC50 [6]: > 10 µM
24 | COc1ccc(OC)c(C(O)C(C)N)c1 (stereo not given) [METHOXAMINE] | – | – | – | – | > 30 | –
25 | CC1(CCN2CCCCC2)C(=O)CCc2ccccc21 (stereo not given) [NEPINALONE] | – | – | – | – | > 30 | –
26 | COC(=O)C[C@](O)(CCCC(C)(C)O)C(=O)O[C@@H]1C(OC)=C[C@]23CCCN2CCc2cc4c(cc2[C@H]13)OCO4 [OMACETAXINE MEPESUCCINATE] | – | – | – | – | – | AC50 (Adenosine receptor A1): > 30 µM
27 | COc1cccc(C(=O)CCN[C@@H](C)[C@H](O)c2ccccc2)c1 [OXYFEDRINE] | – | – | – | – | > 30 | –
28 | CC[N+](C)(CC)CCOC(=O)C(O)(c1ccccc1)C1CCCCC1 (stereo not given) [OXYPHENONIUM] | – | – | – | – | > 30 | –
29 | O=C1c2cccc3c2[C@H](CCC3)CN1[C@@H]1CN2CCC1CC2 [PALONOSETRON] | > 30 | 28 | – | – | – | AC50 [3]: > 30 µM
30 | C[C@@H]1C[C@H]2[C@@H]3C[C@H](F)C4=CC(=O)C=C[C@]4(C)[C@H]3[C@@H](O)C[C@]2(C)[C@@]1(O)C(=O)CO [PARAMETHASONE] | – | – | – | – | > 30 | –
31 | OC[C@H]1O[C@@H](n2cnc3c2NC=NC[C@H]3O)C[C@@H]1O [PENTOSTATIN] | > 30 | > 30 | > 30 | > 30 | – | AC50 [3]: > 30 µM
32 | NNCCc1ccccc1 [PHENELZINE] | – | – | – | – | > 30 | –
33 | CCCn1cnc2c1c(=O)n(CCCCC(C)=O)c(=O)n2C [PROPENTOFYLLINE] | – | – | – | – | > 30 | –
34 | CC(C)c1cccc(C(C)C)c1O [PROPOFOL] | – | – | – | > 30 | – | –
35 | CN[C@@H](C)[C@@H](O)c1ccccc1 [PSEUDOEPHEDRINE] | > 10 | > 10 | > 10 | > 30 | – | AC50 [5]: > 30 µM; AC50 [6]: > 10 µM
36 | CCCN1CC(NS(=O)(=O)N(CC)CC)CC2Cc3c(O)cccc3CC21 (stereo not given) [QUINAGOLIDE] | > 30 | > 30 | 2.8 | > 30 | – | –
37 | COC(=O)[C@H]1[C@H]2C[C@@H]3c4[nH]c5cc(OC)ccc5c4CCN3C[C@H]2C[C@@H](OC(=O)c2cc(OC)c(OC)c(OC)c2)[C@@H]1OC [RESERPINE] | – | – | – | – | > 10 | –
38 | Clc1ccc(C(Cn2ccnc2)OCc2csc3c(Cl)cccc23)c(Cl)c1 (stereo not given) [SERTACONAZOLE] | – | – | – | – | > 10 | –
39 | CC(OCCN1CCCCCC1)(c1ccccc1)c1ccc(Cl)cc1 (stereo not given) [SETASTINE] | – | – | – | – | > 30 | –
40 | O=C1OC(OC(=O)c2cccnc2Nc2cccc(C(F)(F)F)c2)c2ccccc21 (stereo not given) [TALNIFLUMATE] | > 30 | > 30 | > 30 | > 30 | – | AC50 [3]: > 30 µM
41 | C[C@]12C=CC(=O)C=C1CC[C@@H]1[C@@H]2CC[C@]2(C)OC(=O)CC[C@@H]12 [TESTOLACTONE] | > 10 | > 30 | > 10 | – | – | AC50 [3]: > 30 µM
42 | c1ccc2c(SC3=NCCN3)c[nH]c2c1 [TINAZOLINE] | – | – | – | – | > 30 | –
43 | Cc1ccc(C(=O)C(C)CN2CCCCC2)cc1 (stereo not given) [TOLPERISONE] | – | – | – | – | > 30 | –
44 | CCOC(=O)c1c(CSc2ccccc2)n(C)c2cc(Br)c(O)c(CN(C)C)c12 [UMIFENOVIR] | 18 | > 30 | 30 | > 30 | – | AC50 [3]: 6.7 µM
